Source: patent publication US20100035865A1, “Sulfonamides and Pharmaceutical Compositions Thereof” (PFIZER INC, priority 2007, published 2010)
pEC50: −log10 of the molar value. Where “and” joins values, the source holds several entries; their conditions need not be identical. Equal values may be shown once. Read-outs that look alike come from different tables or passages of the source.

Key:
AMPA receptors [1] = assay: AMPA ES Cell FLIPR Screen, G7330B (EC50 and % effect); type: cell-based, murine; details: for pEC50: ES cell-derived neurons, 32 uM AMPA challenge
Description: (§1) The murine ES cell line used was E14-Sx1-16C, which has a targeted mutation in the Sox1 gene, a neuroectodermal marker, that offers G418 resistance when the Sox1 gene is expressed (Stem Cell Sciences). ES cells were maintained undifferentiated as previously described (Roach). […] ES cells were plated on gelatin-coated dishes (BD Biosciences), the media was changed daily and the cells were dissociated with 0.05% Trypsin EDTA (Invitrogen) every other day.
(§2) Embryoid Body Formation: Prior to embryoid body (EB) formation the ES cells were weaned from FBS onto Knockout Serum Replacement (KSR) (Invitrogen). To form EBs, ES cells were dissociated into a single cell suspension then 3×10^6 cells were plated in bacteriology dishes (Nunc 4014) and grown as a suspension culture in NeuroEB-I medium that consisted of Knockout™ D-MEM (Invitrogen), supplemented with 10% KSR (Invitrogen), 0.2 mM L-Glutamine (Invitrogen), 0.1 mM MEM non-essential amino acids (Invitrogen), 30 μg/ml Gentamicin (Invitrogen), 1000 u/ml ESGRO (Chemicon), 0.1 mM 2-Mercaptoethanl (Sigma) and 150 ng/ml Transferrin (Invitrogen). The plates were put on a Stovall Belly Button shaker in an atmospheric oxygen incubator. The media was changed on day 2 of EB formation with NeuroEB-I and on day 4 with NeuroEB-II (NeuroEB-I plus 1 μg/ml mNoggin [R&D Systems]).
(§3) Neuronal Precursor Selection and Expansion: On day 5 of EB formation, EBs were dissociated with 0.05% Trypsin EDTA, and 4×10^6 cells/100 mm dish were plated on Laminin coated tissue culture dishes in NeuroII-G418 medium that consisted of a base medium of a 1:1 mixture of D-MEM/F12 supplemented with N2 supplements and NeuroBasal Medium supplemented with B27 supplement and 0.1 mM L-Glutamine (all from Invitrogen). The base medium was then supplemented with 10 ng/ml bFGF (Invitrogen), 1 μg/ml mNoggin, 500 ng/ml SHH-N, 100 ng/ml FGF-8b (R&D Systems), 1 μg/ml Laminin and 200 μg/ml G418 (Invitrogen) for selection of neuronal precursors expressing Sox-1. The plates were put in an incubator that contained 2% Oxygen and were maintained in these conditions. During the 6-day selection period, the NeuroII media was changed daily. On day 6, the surviving neuronal precursor foci were dissociated with 0.05% Trypsin EDTA and the cells were plated at a density of 1.5×10^6 cells/100 mm Laminin coated dish in NeuroII-G418 medium. The cells were dissociated every other day for expansion, and prepared for Cryopreservation at passage 3 or 4. The cryopreservation medium contained 50% KSR, 10% Dimethyl Sulfoxide (DMSO) (Sigma) and 40% NeuroI-G418I medium. Neuronas precursors were crypreserved at a concentration of 4×10^6cells/ml and 1 ml/cryovial in a controlled rate freezer overnight then transferred to an ultra-low freezer or liquid nitrogen for long-term storage,
(§4) Neuronal Differentiation: Cryopreserved ES cell-derived neuronal precursors were thawed by the rapid thaw method in a 37-degree water-bath. The cells were transferred from the cryovial to a 100 mm Laminin coated tissue culture dish that already contained NeuroII-G418 that had been equilibrated in a 2% Oxygen incubator. The media was changed with fresh NeuroII-G418 the next day. The cells were dissociated every other day as described above for expansion to generate enough cells to plate for the screen. For the screen, the cells were plated into 384-well poly-d-lysine coated tissue culture dishes (BD Biosciences) by the automated SelecT at a cell density of 6K cells/well in differentiation medium NeuroIII that contained a 4:1 ratio of the NeuroBasalMedium/B27:D-MEM/F12/N2 supplemented with 1 μM cAMP (Sigma), 200 μM Ascorbic Acid (Sigma), 1 μg/ml Laminin (Invitrogen) and 10 ng/ml BDNF (R&D Systems). The plates were put in an incubator with 2% Oxygen and allowed to complete the differentiation process for 7 days. The cells could then be used over a 5-day period for the high throughput screen.
(§5) Procedure for AMPA ES Cell FLIPR Screen […]

AMPA receptors [2] = assay: AMPA ES Cell FLIPR Screen, G7330A (single dose % effect); type: cell-based, murine; details: Dose 32.0 uM; mean (range and n in cells below); ES cell-derived neurons, 32 uM AMPA challenge; negative control AMPA alone, positive control AMPA plus cyclothiazide
Description: as §1, §2, §3, §4, §5

[3] = Dose 32.0 uM, individual determinations
[4] = individual determinations, read-out: G7330B (U): EC50
[5] = mean of individual determinations (range and n in cells below), read-out: G7330B mean EC50
[6] = Dose 31.6 uM, individual determinations

SMILES	G7330B (U): % Effect (AMPA receptors [1]; [3])	pEC50 (AMPA receptors [1]; [4])	pEC50 (AMPA receptors [1]; [5])	G7330A: % Effect (AMPA receptors [2]) [%]	G7330B (U): % Effect (AMPA receptors [1]; [6])
CCCS(=O)(=O)N[C@@H]1CNCC[C@H]1c1ccc(-c2ccccc2)cc1 (relative stereo) [Example 10, Propane-1-sulfonic acid (trans-4-biphenyl-4-yl-piperidin-3-yl)-amide]	23.4% and 19.5% and 18.5% and 5.64% and 6.55% and 7.27%	< 4.49	< 4.49	11.2	–
CS(=O)(=O)N[C@@H]1CNCC[C@H]1c1ccc(-c2ccccc2)cc1 (relative stereo) [Example 8, N-(trans-4-Biphenyl-4-yl-piperidin-3-yl)-methanesulfonamide]	62.1% and 46.9% and 54.7% and 34.7% and 36.6% and 38.0%	< 4.49	< 4.49	56.3	–
CC(C)S(=O)(=O)N[C@@H]1CN(C)CC[C@H]1c1ccc(-c2ccccc2)cc1 (relative stereo) [Example 2, propane-2-sulfonic acid (trans-4-biphenyl-4-yl-1-methyl-piperidin-3-yl)-amide]	127% and 141% and 134% and 142% and 151% and 173% and 180%	5.35 and 5.22 and 5.42 and 5.09	5.27	112	–
CCS(=O)(=O)N[C@@H]1CNCC[C@H]1c1ccc(-c2ccccc2)cc1 (relative stereo) [Example 9, Ethanesulfonic acid (trans-4-biphenyl-4-yl-piperidin-3-yl)-amide]	73.4% and 60.8% and 66.9%	< 4.49	< 4.49	59.1	–
O=S(=O)(NC1CNCCC1c1ccc(-c2ccccc2)cc1)C1CC1 (stereo not drawn) [Example 14, Cyclopropanesulfonic acid(trans-4-biphenyl-4-yl-piperidin-3-yl)-amide]	4.61% and 2.97% and 3.26% and 0.0952% and 0.150% and 1.02%	< 4.49	< 4.49	3.36	–
CCCS(=O)(=O)N[C@@H]1CNCC[C@@H]1c1ccc(-c2ccccc2)cc1 (relative stereo) [Example 12, Propane-1-sulfonic acid(cis-4-biphenyl-4-yl-piperidin-3-yl)-amide]	0.428% and −0.204% and −0.02059% and 0.243%	–	–	0.110	–
CC(C)S(=O)(=O)N[C@@H]1CN(C)CC[C@@H]1c1ccc(-c2ccccc2)cc1 (relative stereo) [Example 7, propane-2-sulfonic acid (cis-4-biphenyl-4-yl-1-methyl-piperidin-3-yl)-amide]	–	–	–	−0.867	−0.0209% and −0.612% and −1.41% and −1.42%
CC(C)S(=O)(=O)N[C@@H]1CNCC[C@H]1c1ccc(-c2ccccc2)cc1 (relative stereo) [Example 1, propane-2-sulfonic acid (trans-4-biphenyl-4-yl-piperidin-3-yl)-amide]	86.8% and 115% and 132% and 92.5% and 85.0%	4.77 and 4.95 and 4.90	4.88	87.1	–
O=S(=O)(CC(F)(F)F)NC1CNCCC1c1ccc(-c2ccccc2)cc1 (stereo not drawn) [Example 13, 2,2,2-Trifluoro-ethanesulfonic acid(trans-4-biphenyl-4-yl-piperidin-3-yl)-amide]	27.9% and 46.2% and 59.8% and 48.9% and 30.2% and 28.1%	< 4.49	< 4.49	43.7	–
CCN1CC[C@@H](c2ccc(-c3ccccc3)cc2)[C@H](NS(=O)(=O)C(C)C)C1 (relative stereo) [Example 5, propane-2-sulfonic acid (trans-4-biphenyl-4-yl-1-ethyl-piperidin-3-yl)-amide]	–	< 4.50	< 4.50	–	76.3% and 78.8%
CCS(=O)(=O)N[C@@H]1CNCC[C@@H]1c1ccc(-c2ccccc2)cc1 (relative stereo) [Example 11, Ethanesulfonic acid (cis-4-biphenyl-4-yl-piperidin-3-yl)-amide]	1.55% and 3.14% and 2.25% and 2.45%	–	–	2.34	–
